In paper PMC2873402, “Discovery of High-Affinity Protein Binding Ligands – Backwards” (PLoS ONE, 2010):
“Also recorded” adds a separate entry of the source. Bridge positions count the residues as written; N and C are the ends. Ends that are not written are not given here. I, II: the chains in the order shown. * marks the point of attachment. StBu = CC(C)(C)S*

Tests used:
AKT3 [1] = experiment: Protein array (ProtoArray), binding to AKT3; parameters: species or system human
Method: (§1) Synbodies were screened on an Invitrogen ProtoArray™ (Life Technologies, Carlsbad, CA, USA) detected with Alexa-555 labeled streptavidin (Life Technologies), and scanned using a Perkin Elmer ProScan Array HTP. The spots were analyzed using GenePix Pro (Molecular Devices, Sunnyvale, CA, USA) and data were processed using Genespring GX (Agilent Technologies, Santa Clara, CA, USA). Synbodies were labeled with biotin using either Maleimide-PEG2-Biotin (Thermo Pierce, Rockford, IL, USA) to label the C-terminal cysteine or biotin was incorporated during synbody synthesis by replacing the C-terminal cysteine with Lys-biotin (Novabiochem, San Diego, CA, USA). Synbodies were screened on the array using the recommended protocol with the following modifications: the arrays were blocked with 5 mL blocking buffer (50mM HEPES pH 7.5, 200 mM NaCl, 0.08% Triton X-100, 25% Glycerol, 20mM reduced Glutathione, 1.0mM DTT, 1% BSA) for 90 min. A 200 nM synbody solution was incubated in probing buffer (1× PBS, 1% BSA, 0.1% Tween) for 90 minutes. Slides were dried by centrifugation at 200g for 1 minute and scanned at 100% laser power and 70% photomultiplier voltage. The gal file was obtained for each array by submitting the barcode of the array to www.invitrogen.com/protoarray.
(§2) Heat maps were constructed using median-normalized data from each ProtoArray. […]

AKT3 [2] = experiment: IP of AKT isoforms spiked into A549 lysate: AKT3; assay type: binding; conditions: 250 ng of each isoform in 500 µg A549 lysate, Western Blot
Method: (§3) This apparent specificity was investigated further by performing an IP using 250 ng of each isoform of AKT spiked into 500 µg of A-549 cell lysate.
(§4) For all IP experiments, either a 1 µM or 250 nM solution of biotin-conjugated synbody was captured on 20 µL of streptavidin coated paramagnetic M-280 Dynabeads (Life Technologies) according to the manufacturers protocol. Synbody coated beads were washed five times with 1 mL of 100 mM phosphate buffered saline containing 0.05% Tween-20 (PBST) and incubated overnight at 4°C with shaking in the desired amount of target protein in A549 cell lysate. For Kd determination experiments, serial dilutions of AKT1 or ABL1 were prepared in binding buffer. After binding, beads were washed five times with 1 mL of PBST and heated at 70°C in 20 µL of 1× LDS loading buffer (Invitrogen) for 10 minutes. The samples were analyzed by SDS-PAGE gel with Western Blot detection using the appropriate antibody and imaged on a GE Healthcare Typhoon Trio.

[3] = system: 8,303 recombinant human proteins; experiment: Protein array (ProtoArray) screen of synbodies; assay type: binding; conditions: 200 nM biotin synbody, Alexa-555 streptavidin detection, background-subtracted fluorescence
Source text: (§5) To test this approach, a candidate synbody was constructed using two peptides, […] and […], referred to as peptides 1 and 2, respectively. The sequences of the first 17 aa of these peptides were generated using a random number generator and three constant positions on the C-terminus that served as a spacer between the linker scaffold and the active portion of each peptide. A divergent synthetic method was used in which peptide 1 was synthesized from C to N terminus from the α-amine of lysine and peptide 2 was synthesized from the ε-amine of lysine (Figure 2A, Materials and Methods S1, Figure S1). The synbody was tagged on the C-terminus with biotin and screened against a Life Technologies ProtoArray™. ProtoArrays are nitrocellulose coated slides onto which 8,303 recombinant human proteins have been spotted. After a 2-hour incubation, the array was washed and bound synbody was detected using fluorescently labeled streptavidin. […]
(§6) Synbodies were screened on an Invitrogen ProtoArray™ (Life Technologies, Carlsbad, CA, USA) detected with Alexa-555 labeled streptavidin (Life Technologies), and scanned using a Perkin Elmer ProScan Array HTP. The spots were analyzed using GenePix Pro (Molecular Devices, Sunnyvale, CA, USA) and data were processed using Genespring GX (Agilent Technologies, Santa Clara, CA, USA). […]

AKT1 [4] = target: T1, AKT1 (Homo sapiens, UniProt P31749); experiment: IP of 35S-labeled AKT1, scintillation counting; assay type: binding; parameters: N-terminal vector leader of pEXP5-NT (6xHis + TEV site by own knowledge of the vector); made in house; host or cells: Expressway Mini Cell-Free Expression System (in vitro translation); conditions: AKT1 approximately 3% of total protein
Method: In order to validate the Kd determined by SPR, an additional IP was performed using ^35S-labeled AKT1 produced by in vitro translation (IVT). The translation mixture contained 12 µg of AKT1 in the presence of 400 µg of total protein and a concentration series of ^35S-labeled AKT1 from 41.5 nM to 80 pM was prepared by dilution of the 35-S-labeled AKT1 IVT mixture. The synbody was then used to precipitate the ^35S-labeled AKT1 in the same manner as before. Bound AKT1 was quantified using liquid scintillation counting and plotted as a function of AKT1 concentration.
AKT1 DNA was assembled by ligation of 42-bp oligonucleotides by PCR according to a procedure developed internally (Borovkov, et al. submitted). The PCR product was cloned into pEXP5-NT topo expression vector (Life Technologies), purified using a Qaigen PCR purification kit, and quantified by Nanodrop spectrophotometer (Thermo Scientific). […]
For all IP experiments, either a 1 µM or 250 nM solution of biotin-conjugated synbody was captured on 20 µL of streptavidin coated paramagnetic M-280 Dynabeads (Life Technologies) according to the manufacturers protocol. […] The samples were analyzed by SDS-PAGE gel with Western Blot detection using the appropriate antibody and imaged on a GE Healthcare Typhoon Trio.

AKT1 [5] = target: T1, AKT1; experiment: Protein array (ProtoArray), binding to AKT1; parameters: purchased Life Technologies; conditions: 200 nM synbody, fluorescently labeled streptavidin
Source text: as §5, §6

AKT1 [6] = target: T1, AKT1; experiment: IP of AKT isoforms spiked into A549 lysate: AKT1; assay type: binding; parameters: purchased Life Technologies; conditions: 250 ng of each isoform in 500 µg A549 lysate, Western Blot
Method: as §3, §4

AKT2 = experiment: Protein array (ProtoArray), binding to AKT2; parameters: species or system human
Method: as §1, §2

T1 sequence (P31749 whole entry): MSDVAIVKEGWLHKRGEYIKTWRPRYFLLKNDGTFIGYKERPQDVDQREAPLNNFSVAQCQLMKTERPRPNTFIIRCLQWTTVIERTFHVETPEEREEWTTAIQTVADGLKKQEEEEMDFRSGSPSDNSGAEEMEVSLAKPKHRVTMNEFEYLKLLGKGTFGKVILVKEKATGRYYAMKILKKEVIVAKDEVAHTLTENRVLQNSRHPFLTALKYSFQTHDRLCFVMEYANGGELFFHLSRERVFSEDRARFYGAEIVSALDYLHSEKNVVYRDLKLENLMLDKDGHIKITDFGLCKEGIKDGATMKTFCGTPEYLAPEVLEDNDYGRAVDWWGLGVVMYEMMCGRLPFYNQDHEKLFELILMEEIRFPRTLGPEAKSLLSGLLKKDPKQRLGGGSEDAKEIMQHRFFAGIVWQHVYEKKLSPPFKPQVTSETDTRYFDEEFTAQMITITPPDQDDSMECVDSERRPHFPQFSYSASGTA

Substance: I: AHKVVPQRQIRHAYNRYGSGKC(StBu)-NH2 / II: FRGWAHIFFGPHVIYRGGSG (amide I:21-II:C) [synbody]
- binding to AKT3 on protein array (AKT3 [1]): little binding
- IP of AKT3 (isoform selectivity) (AKT3 [2]): relatively little
- proteins bound on protein array [3]: bound few proteins on the array; also recorded: bound several different proteins including PCCA, CASZ1, GRP58, NOB1, and AKT1
- specificity for AKT1 in IVT lysate (AKT1 [4]): specifically binds AKT1 from a complex background
- binding to AKT1 on protein array (top 10 proteins) (AKT1 [5]): twice in the top 10 proteins bound by the synbody
- IP of AKT1 (isoform selectivity) (AKT1 [6]): selectively precipitates AKT1
- binding to AKT2 on protein array (AKT2): little binding
